Data from patent publication US5141947A, “Fibrinolysis-enhancing agents” (Mitsubishi Kasei Corporation, priority 1984, dated 1992).

Tests used:
[1] = tested on: fibrinolysis of plasma by t-PA (tissue plasminogen activator); experiment: fibrinolysis of plasma aggregation effected by t-PA; 0.15 ml plasma in 0.7 ml total (Examples 2 and 3); format: biochemical, healthy person (human)
Method: (§1) One part by volume of 3.8% sodium citrate solution was added to 9 parts by volume of the venous blood of a healthy person and centrifuged at 3,000 rpm for 15 minutes to collect the plasma.
(§2) There was placed 0.6 ml of the plasma into a spectrophotometric microcell having a path length of 10 mm and a path width of 2 mm. After adding 0.015 ml of physiological saline containing the compound (Ia) in various concentrations, the cell was held in the cell holder of a spectrophotometer, Hitachi 220 A, which was maintained at 37° C. and incubated for 5 minutes. Into the cell, there was added 0.025 ml of a solution of 8.0 μg/ml t-PA (tissue plasminogen activator) or 3,000 international units per ml high molecular weight UK, urokinase manufactured by The Green Cross Corporation, and […] CaCl2 solution. Changes in the absorbance at 608 nm were recorded at 37° C. every one minute. Thus, the coagulation and fibrinolysis of the plasma were measured with the time lapse.
(§3) The coagulation time is defined as a time period from the time 0 at which CaCl2 solution is added to a coagulation initiation time at which the absorbance has increased to a value larger by 0.025 than the value at the time 0: i.e., delta A is 0.025. The dissolution time is defined as a time period from the coagulation initiation time to a fibrinolysis termination time at which the absorbance has decreased to a value 10% that of the maximum value.
(§4) The procedures of Example 1 were repeated except that a less amount cf plasma was used. Thus, in the same manner as Example 1, there was collected 0.15 ml of plasma to which 0.1 ml of physiological saline containing the compound (Ia) in various concentrations was added, the total volume was adjusted to 0.375 ml, the resulting mixture was incubated at 37° C. for 5 minutes, 0.025 ml of a solution of 1.6 μg/ml t-PA or 500 international units per ml high molecular weight UK and 0.3 ml of 0.025M CaCl2 solution were added, and the coagulation and fibrinolysis of the plasma were measured with the time lapse to determine the coagulation time and dissolution time.
Activities of arginine derivatives having the thrombin-inhibiting effect and the structural formula shown below on the fibrinolysis by t-PA were estimated in the same manner as Example 2.

[2] = tested on: fibrinolysis of plasma by UK (urokinase); experiment: fibrinolysis of plasma aggregation effected by UK; 0.6 ml plasma in 0.7 ml total (Example 1); format: biochemical, healthy person (human); conditions: for Coagulation Time / Dissolution Time: n=5, average ± S.E.M.
Method: as §1, §2
(§5) In the FIGURE, the ordinate represents the difference of absorbance (ΔA) at 608 nm and the abscissa represents the time in minutes.
(§6) The effects of the compound (Ia) on the dissolution time and the coagulation time were measured on the plasma from five healthy persons. […] Values in Tables are expressed in the average+S.E.M.
as §3

[3] = tested on: thrombus in carotid artery of rabbit; experiment: in vivo thrombolysis by t-PA, rabbit carotid artery thrombus (Example 4); conditions: Compound (Ia) 1.2 mg/kg alone
Method: The carotid artery of a rabbit was exposed from the surrounding tissue under anesthesia by pentobarbital. The exposed artery was surrounded with absorbent cotton soaked with glacial acetic acid and allowed to stay for 3 hours to form thrombus by the damage done to the endorthelium. The thus formed thrombus was tested for dissolution. Immediately after removing out the cotton, physiological saline in which the substance to be tested had been dissolved was injected through the femoral vein. The infusion was continued over 2 hours. After the infusion, the arterial segment wherein the thrombus had been formed was cut out and the thrombus mass was removed out under a microscope. The thrombus was dissolved in alkali and the protein was quantitatively measured by phenol method.

[4] = tested on: fibrinolysis of plasma by t-PA (tissue plasminogen activator); experiment: fibrinolysis of plasma aggregation effected by t-PA; 0.6 ml plasma in 0.7 ml total (Example 1); format: biochemical, healthy person (human); conditions: for Coagulation Time / Dissolution Time: n=5, average ± S.E.M.
Method: as §1, §2, §5, §6, §3

[5] = acute toxicity, LD50, intravenous, male mice; conditions: mouse, in vivo, male mice weighing 20 g
Method: The arginine derivative of the formula (Ia) above was prepared in accordance with Example 2 described in the European Patent Application Publication No. 8746.

[6] = tested on: fibrinolysis of plasma by UK (urokinase); experiment: fibrinolysis of plasma aggregation effected by UK; 0.15 ml plasma in 0.7 ml total (Example 2); format: biochemical, healthy person (human)
Method: as §1, §2, §3, §4

[7] = Table 5, 0.3 μM, control 2.9 min
[8] = Table 5, 0.3 μM, control 95.7 min

COc1ccc2ccc(S(=O)(=O)N[C@@H](CCCNC(=N)N)C(=O)N3CCC(C)CC3C(=O)O)cc2c1 (stereo partly shown) [Compound 2]
Coagulation Time [1, 7]: 4.1 min | Dissolution Time [1, 8]: 36.5 min

CC1CNc2c(cccc2S(=O)(=O)N[C@@H](CCCNC(=N)N)C(=O)N2CC[C@@H](C)C[C@@H]2C(=O)O)C1 (stereo partly drawn) [Compound (Ia), (2R, 4R)-1-[N^2-(3-methyl-1,2,3,4-tetrahydro-8-quinolinesulfonyl)-L-arginyl]-4-methyl-2-piperidinecarboxylic acid]
dissolution time, in comparison with no addition ([2]; 0.1 μM or 0.3 μM): significantly reduced | Coagulation Time ([2]; 0.1 μM): 8.8 ± 1.1 min | Dissolution Time ([2]; 0.1 μM): 28.2 ± 5.2 min | Coagulation Time ([2]; 0.3 μM): 10.2 ± 1.4 min | Dissolution Time ([2]; 0.3 μM): 24.6 ± 4.3 min | Coagulation Time ([1]; 0.01 μM): prolonged slightly | Coagulation Time ([1]; 0.01 μM, n=5): 4.5 ± 0.2 min | Dissolution Time ([1]; 0.01 μM, n=5): 64.1 ± 10.2 min | Coagulation Time ([1]; 0.03 μM, n=5): 5.0 ± 0.2 min | Dissolution Time ([1]; 0.03 μM, n=5): 51.6 ± 7.7 min | Coagulation Time ([1]; 0.1 μM, n=5): 6.7 ± 0.3 min | Dissolution Time ([1]; 0.1 μM, n=5): 34.5 ± 5.2 min | dissolution time decreased to fraction of the time without addition ([1]; 0.3 μM): about 1/3 | Coagulation Time ([1]; 0.3 μM, n=5): 9.0 ± 0.3 min | Dissolution Time ([1]; 0.3 μM, n=5): 26.6 ± 2.4 min | fibrinolysis ([1]; as low as 0.01 μM): enhanced | thrombolytic effect [3]: no thrombolytic effect | Thrombus Protein ([3]; 2 h infusion, femoral vein, n=4, saline control 1.97 ± 0.38): 2.03 ± 0.55 mg | dissolution time, in comparison with no addition ([4]; 0.1 μM or 0.3 μM): significantly reduced | Coagulation Time ([4]; 0.1 μM): 10.6 ± 2.0 min | Dissolution Time ([4]; 0.1 μM): 33.0 ± 2.0 min | Coagulation Time ([4]; 0.3 μM): 13.8 ± 2.8 min | Dissolution Time ([4]; 0.3 μM): 32.0 ± 2.8 min | LD50 [5]: 211 mg/kg | Coagulation Time ([6]; 0.01 μM): prolonged slightly | Coagulation Time ([6]; 0.01 μM, n=5): 4.9 ± 0.6 min | Dissolution Time ([6]; 0.01 μM, n=5): 63.8 ± 11.8 min | Coagulation Time ([6]; 0.03 μM, n=5): 5.5 ± 0.4 min | Dissolution Time ([6]; 0.03 μM, n=5): 35.9 ± 5.7 min | Coagulation Time ([6]; 0.1 μM, n=5): 7.4 ± 0.8 min | Dissolution Time ([6]; 0.1 μM, n=5): 23.4 ± 2.2 min | dissolution time decreased to fraction of the time without addition ([6]; 0.3 μM): about 1/4 | Coagulation Time ([6]; 0.3 μM, n=5): 9.9 ± 0.8 min | Dissolution Time ([6]; 0.3 μM, n=5): 22.5 ± 1.3 min | fibrinolysis ([6]; as low as 0.01 μM): enhanced

Cc1ccc2ccc(S(=O)(=O)N[C@@H](CCCNC(=N)N)C(=O)N3CCC(C)CC3C(=O)O)cc2c1 (stereo partly shown) [Compound 4]
Coagulation Time [1, 7]: 3.1 min | Dissolution Time [1, 8]: 50.5 min

CCC1CCN(C(=O)[C@H](CCCNC(=N)N)NS(=O)(=O)c2ccc3cc(OC)c(OC)cc3c2)C(C(=O)O)C1 (stereo partly shown) [Compound 3]
Coagulation Time [1, 7]: 3.2 min | Dissolution Time [1, 8]: 53.4 min

COCCN(CC(=O)O)C(=O)[C@H](CCCNC(=N)N)NS(=O)(=O)c1ccc2cc(OC)c(OC)cc2c1 [Compound 1]
Coagulation Time [1, 7]: 3.2 min | Dissolution Time [1, 8]: 55.4 min
